Earlier results on 1 compound are cited in EP3342399B1, “PHARMACEUTICAL COMPOSITIONS COMPRISING POSACONAZOLE AND MANUFACTURING METHOD” (Abdi Ibrahim Ilac Sanayi ve Ticaret A.S., priority 2016, dated 2018).

Where two headings read alike, the source gives them in different places.

With `CC[C@@H]([C@H](C)O)n1ncn(-c2ccc(N3CCN(c4ccc(OC[C@@H]5CO[C@@](Cn6cncn6)(c6ccc(F)cc6F)C5)cc4)CC3)cc2)c1=O` [Posaconazole, 1-[(1S,2S)-1-Ethyl-2-hydroxypropyl]-4-{4-[4-(4-{2-[(2S,4R)-(1,2,4-triazol-1-ylmetyl)-2-(2,4-difluorophenyl)-oxolan-4-ylmetyl]phenyl}piperazin-1-yl)phenyl]}-2,3-dihydro-1,2,4-triazol-3-one], for the setting “BCS Class II”, the permeability result was “high” and the solubility entry is recorded as “low”. Besides, the solubility entry (at low pH) was “high”.
